Assay results taken from article PMC9097638, “Mechanism underlying the carotenoid accumulation in shaded tea leaves” (Food Chemistry: X, 2022).

Experiments:
CsLCYB = target: T1, CsLCYB (Camellia sinensis, UniProt A0A0B4SX47); assay: E. coli pAC-LYC complementation, HPLC of pigments; format: cell-based; details: lycopene made in the cells; product beta-carotene; 30 °C, 48 h, darkness
T1 construct: gene lcyb; full-length cDNA subcloned into y2 plasmid; expressed in E. coli DH5alpha carrying pAC-LYC; not purified
T1 sequence (A0A0B4SX47 1-504): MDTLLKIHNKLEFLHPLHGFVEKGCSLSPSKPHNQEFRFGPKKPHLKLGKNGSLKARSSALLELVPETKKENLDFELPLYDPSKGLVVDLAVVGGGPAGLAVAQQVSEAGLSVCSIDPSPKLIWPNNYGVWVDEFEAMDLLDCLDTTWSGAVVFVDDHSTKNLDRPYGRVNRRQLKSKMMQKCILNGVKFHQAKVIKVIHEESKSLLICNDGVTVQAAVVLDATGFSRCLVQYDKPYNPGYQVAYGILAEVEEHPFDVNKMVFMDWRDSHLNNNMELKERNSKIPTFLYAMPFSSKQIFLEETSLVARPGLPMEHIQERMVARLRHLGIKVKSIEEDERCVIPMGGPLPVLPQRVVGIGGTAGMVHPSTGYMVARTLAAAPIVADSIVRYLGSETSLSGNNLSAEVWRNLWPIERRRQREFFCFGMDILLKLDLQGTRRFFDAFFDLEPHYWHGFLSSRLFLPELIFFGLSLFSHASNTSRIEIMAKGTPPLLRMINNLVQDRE

CsLCYE = target: T2, CsLCYE (Camellia sinensis, UniProt A0A7J7G232); assay: E. coli pAC-LYC complementation, HPLC of pigments; format: cell-based; details: lycopene made in the cells; product delta-carotene; 30 °C, 48 h, darkness
T2 construct: gene HYC85_025912; full-length cDNA subcloned into y2 plasmid; expressed in E. coli DH5alpha carrying pAC-LYC; not purified
T2 sequence (A0A7J7G232 1-531 limits assumed): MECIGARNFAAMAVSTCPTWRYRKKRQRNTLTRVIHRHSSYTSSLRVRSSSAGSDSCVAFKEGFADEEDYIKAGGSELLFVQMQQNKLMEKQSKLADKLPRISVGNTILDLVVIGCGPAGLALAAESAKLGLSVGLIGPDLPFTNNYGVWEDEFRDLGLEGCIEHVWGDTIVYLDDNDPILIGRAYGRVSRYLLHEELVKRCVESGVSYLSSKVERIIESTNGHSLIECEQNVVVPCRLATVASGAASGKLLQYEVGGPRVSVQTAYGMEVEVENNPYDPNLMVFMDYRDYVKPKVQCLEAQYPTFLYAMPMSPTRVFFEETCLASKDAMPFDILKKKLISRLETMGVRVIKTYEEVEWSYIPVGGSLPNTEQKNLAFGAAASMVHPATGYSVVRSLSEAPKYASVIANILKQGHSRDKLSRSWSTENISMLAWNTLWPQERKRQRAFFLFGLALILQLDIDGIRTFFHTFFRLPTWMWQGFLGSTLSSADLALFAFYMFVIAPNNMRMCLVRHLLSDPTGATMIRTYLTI

CC(C)=CCC/C(C)=C/C=C/C(C)=C/C=C/C(C)=C/C=C/C=C(C)/C=C/C=C(C)/C=C/C=C(\C)CCC=C(C)C [lycopene]
E. coli pAC-LYC complementation, HPLC of pigments (CsLCYB): CsLCYB was able to convert the lycopene produced by the cells to β-carotene | E. coli pAC-LYC complementation, HPLC of pigments (CsLCYE): monocyclic δ-carotene and lycopene were detected, implying that CsLCYE is a functional lycopene ε-cyclase
